Source: EP4772560A1, “POLYESTER RESIN COMPRISING REGENERATED BIS(2-HYDROXYETHYL)TEREPHTHALATE, AND ARTICLE COMPRISING POLYESTER RESIN” (SK Chemicals Co., Ltd., priority 2023, dated 2025)

Test: Thermal property drop index (TDI) calculated from HPLC peak area fractions of recycled BHET
Assay type: physicochemical
Details: thermal property drop index = [DEG-ester-1] + [DEG-ester-2] × 2 + exp[HA-ester], from HPLC peak area fractions (%)
Protocol: About 0.01 g of recycled bis(2-hydroxyethyl) terephthalate was diluted in about 20 ml of methanol, which was analyzed by high-performance liquid chromatography (HPLC) (model: Waters e2695, column: C18 (4.6 × 250 mm), 5 µm, UV detector: 242 nm, injection volume: 10 µl, eluent (gradient) A: H2O + H3PO4, B: acetonitrile) Thereafter, the peak area fractions (%) of the following components among the total peak area of HPLC were obtained. • MHET: monohydroxyethyl terephthalate • BHET: bis(2-hydroxyethyl) terephthalate, • DEG-ester-1: 2-hydroxyethyl[2-(2-hydroxyethoxy)ethyl] terephthalate • DEG-ester-2: bis[2-(2-hydroxyethoxy)ethyl]benzene-1,4-dicarboxylate • HA-ester: 2-hydroxyethyl(2-acetoxyethyl) terephthalate • Dimer: BHET dimer • Trimer: BHET trimer
Recycled bis(2-hydroxyethyl) terephthalate was subjected to HPLC analysis in the same manner as in section (1) above. The thermal property drop index (TDI) defined by the following equation was then calculated. TDI = [DEG−ester−1] + [DEG−ester−2] × 2 + exp^(∧) [HA−ester] [formula]
Here, DEG-ester-1 is the peak area fraction (%) of 2-hydroxyethyl[2-(2-hydroxyethoxy)ethyl] terephthalate, DEG-ester-2 is the peak area fraction (%) of bis[2-(2-hydroxyethoxy)ethyl]benzene-1,4-dicarboxylate, and HA-ester is the peak area fraction (%) of 2-hydroxyethyl(2-acetoxyethyl) terephthalate. It was calculated by taking only the numerical values excluding the units of these parameters.

O=C(OCCO)c1ccc(C(=O)OCCO)cc1 [r-BHET A1, bis(2-hydroxyethyl) terephthalate]
TDI (listed as A1): 1.71

O=C(OCCO)c1ccc(C(=O)OCCO)cc1 [r-BHET A2, bis(2-hydroxyethyl) terephthalate]
TDI (listed as A2): 1.59

O=C(OCCO)c1ccc(C(=O)OCCO)cc1 [r-BHET A3, bis(2-hydroxyethyl) terephthalate]
TDI (listed as A3): 1.74

O=C(OCCO)c1ccc(C(=O)OCCO)cc1 [r-BHET A4, bis(2-hydroxyethyl) terephthalate]
TDI (listed as A4): 1.86

O=C(OCCO)c1ccc(C(=O)OCCO)cc1 [r-BHET A5, bis(2-hydroxyethyl) terephthalate]
TDI (listed as A5): 2.55

O=C(OCCO)c1ccc(C(=O)OCCO)cc1 [r-BHET A6, bis(2-hydroxyethyl) terephthalate]
TDI (listed as A6): 1.86

O=C(OCCO)c1ccc(C(=O)OCCO)cc1 [r-BHET A7, bis(2-hydroxyethyl) terephthalate]
TDI (listed as A7): 1.71

O=C(OCCO)c1ccc(C(=O)OCCO)cc1 [r-BHET B1, bis(2-hydroxyethyl) terephthalate, reference compound]
TDI (listed as B1): 9.23

O=C(OCCO)c1ccc(C(=O)OCCO)cc1 [r-BHET B2, bis(2-hydroxyethyl) terephthalate, reference compound]
TDI (listed as B2): 6.87
